According to patent publication US6933296B2, “Compounds effective as β2-adrenoreceptor agonists as well as PDE4-inhibitors” (Altana Pharma B.V., priority 2000, dated 2005):

Legend:
β2-adrenoceptor = molecular target: T1, β2-adrenoceptor (Cavia porcellus, UniProt Q8K4Z4); assay: β2-Adrenoceptor agonistic activity in isolated guinea-pig trachea (relaxation); assay type: cell-based; conditions: half-maximal relaxation of isolated guinea-pig trachea pre-treated with 3×10^−7 M RP 73401; for EC50: read-out: β2-Adrenoceptor agonistic affinity [-logEC50 (mol/l)] (converted)
T1 construct: Male guinea-pigs (350-450 g) were killed by a sharp blow on the head and exsanguination, after that the trachea was removed; from tissue; host or cells: isolated guinea-pig trachea (ring chains in organ bath)
Source text: b) β2-Adrenoceptor Agonistic Activity in Isolated Guinea-pig Trachea
Male guinea-pigs (350-450 g) were killed by a sharp blow on the head and exsanguination, after that the trachea was removed. After clearing off adhering tissue the trachea was cut into single rings which were tied together forming up to six 4- to 5-ring chains which were suspended in 10-ml organ baths containing Krebs buffer of the following composition (mM): NaCl 118, KCl 5.2, CaCl2 1.9, MgSO4 0.56, NaH2PO4 0.8, NaHCO3 25.0, and glucose 11.1, maintained at 37° C. and continuously aerated with a mixture of 95% O2 and 5% CO2. The end of the chain was tied at the bottom of the tissue bath and connected to a force-displacement transducer (Type K-30, Hugo Sachs Elektronik, Germany) for the recording of isometric tension changes and then placed under 1.5 to 2 g of tension. After a 60 min equilibration period, during which time the preparations were repeatedly washed and the spontaneous contraction plateaud, each tracheal preparation was pre-treated with 3×10^−7 M of RP 73401 for total inhibition of PDE4, which caused relaxation of the tissue between 30 and 40% of maximum (Harris et al., 1989, JPET 251: 199-206). After stabilization of the relaxant response to RP 73401, the test drugs were administered in a cumulative manner (factor 3), each concentration remaining in contact with the trachea until the […] response reached a plateau, before addition of the next higher concentration. At the end of the test drug administration, which caused maximal relaxation the tissue (verified in control experiments for each test drug by additional administration of 10^−6 M (−)-isoprenaline), a high concentration of the β-adrenoceptor antagonist, dl-sotalol (3−6×10^−4 M), was additionally given to assess whether the relaxant response of the trachea to test compound was due to β2-adrenoceptor stimulation. dl-Sotalol nearly completely reversed the relaxation amplitude to the test compounds and was taken as evidence for their β2-adrenoceptor agonistic property. The relaxant response to test compound was expressed as percent determined between the relaxant amplitude after that reached by RP 73401 (0%) and the maximal relaxation obtained prior to dl-sotalol administration (100%). EC50 values for a half-maximal relaxation of the tissue by test compound were graphically interpolated from 12 to 16 individual concentration-response curve. The −log EC50 values (mol/l) thus obtained were taken as a measure for β2-adrenoceptor agonistic activity of the test compounds.

human eosinophils = assay: Inhibition of C5a-stimulated chemiluminescence in human eosinophils; assay type: cell-based; conditions: 100 nM C5a, 100 nM salbutamol included as additional cAMP trigger; for IC30: Eosinophil, read-out: Inhibition of C5a-stimulated chemiluminescence [-logIC30 (mol/l)] (converted)
Source text: c) Inhibition of C5a-stimulated Chemiluminescence in Human Eosinophils
Eosinophils were purified essentially as described in detail elsewhere (Hatzelmann A, Tenor H and Schudt C, Differential effects of non-selective and selective phosphodiesterase inhibitors on human eosinophil functions. Brit J Pharmacol 114: 821-831, 1995). Briefly, total granulocytes were first purified from blood (anticoagulated with 0.3% w/v sodium citrate) by dextran sedimentation, centrifugation on Ficoll Paque and hypotonic lysis of remaining red blood cells. For the further purification of the eosinophil fraction the magnetic cell separation (MACS) system from Miltenyi Biotec (Bergisch-Gladbach, Germany) was applied. Eosinophils were separated from neutrophils by negative selection using anti-CD16 microbeads in a two-step protocol using D- and BS-(formerly called B2-) separation columns. By this method human eosinophils with a purity of >99% and a viability of >97% were obtained.
The chemiluminescence (CL) assay was essentially performed as described (Hatzelmann et al., 1995). Briefly, measurements were performed in a “CL-buffer” (140 mM NaCl, 5 mM KCl, 1 mM MgCl2, 10 mM HEPES, pH 7.4) containing 1 mM CaCl2, 1 mg/ml glucose, 0.05% (w/v) BSA, 10 μM luminol and 4 μM microperoxidase (all values correspond to final concentrations in the assays) in a total volume of 0.5 ml at a cell concentration of 10^6 cells/ml. Aliquots (0.4 ml) of the cell suspension (containing luminol and microperoxidase) were preincubated for 5 min at 37° C. in the absence or presence of inhibitors (0.05 ml). Stock solutions of the inhibitors (10 mM) were prepared in DMSO and diluted 1:100 (v/v) in CL-buffer; subsequent dilutions were made in 1% DMSO/CL-buffer to achieve the final drug concentrations in the assays at a DMSO concentration of 0.1% (v/v) which by itself only weakly affected the CL response. […] After preincubation, the assays were transferred into a “Multi-biolumat LB 9505C” from Berthold (Wildbad, Germany) and stimulated by the addition of 0.05 ml C5a (dissolved in CL-buffer; 100 nM final concentration). CL was continuously recorded for 1 min (C5a) and the AUC (area under the curve) calculated. Inhibition of CL by the compounds under these conditions is given as −log IC30 (mol/l).

PDE4 = assay: Inhibition of PDE4 activity (cytosol from human neutrophils, [3H]cAMP hydrolysis); assay type: biochemical; conditions: 0.5 μM cAMP, Motapizone 1 μM, DMSO 0.5% for (some of) examples 1-19, 1% from example 20
Protocol: Method for Measuring Inhibition of PDE4 Activity
PDE4 activity was determined as described by Thompson et al. (Adv Cycl Nucl Res 10: 69-92, 1979) with some modifications (Bauer and Schwabe, Naunyn-Schmiedeberg's Arch Pharmacol 311: 193-198, 1980). At a final assay volume of 200 μl (96well microtiter plates) the assay mixture contained 20 mM Tris-HCl (pH 7.4), 5 mM MgCl2, 0.5 μM cAMP, [^3H]cAMP (about 30,000 cpm/assay), the test compound and an aliquot of cytosol from human neutrophils which mainly contains PDE4 activity as described by Schudt et al. (Naunyn-Schmiedeberg's Arch Pharmacol 344: 682-690, 1991); the PDE3-specific inhibitor Motapizone (1 μM) was included to suppress PDE3 activity originating from contaminating platelets.
To minimize problems with the solubility of the compounds, starting from example 20 serial dilutions of the compounds were prepared directly in DMSO and further diluted 1:100 (v/v) in the assays to obtain now the final concentrations of the inhibitors at a DMSO concentration of 1% (v/v) which by itself only slightly affected PDE4 activity.
After preincubation for 5 min at 37° C., the reaction was started by the addition of substrate (cAMP) and the assays were incubated for further 15 min at 37° C. 50 μl of 0.2 N HCl was added to stop the reaction and the assays were left on ice for about 10 min. Following incubation with 25 μg 5′-nucleotidase (Crotalus atrox snake venom) for 10 min at 37° C., the assays were loaded on QAE Sephadex A-25 (1 ml bed volume). The columns were eluted with 2 ml of 30 mM ammonium formiate (pH 6.0) and the eluate was counted for radioactivity. Results were corrected for blank values (measured in the presence of denatured protein) which were below 5% of total radioactivity. […] The IC50-values for the compounds according to the invention for the inhibition of the PDE4 activity were determined from the concentration-inhibition curves by nonlinear-regression.

T1 sequence (Q8K4Z4 whole entry): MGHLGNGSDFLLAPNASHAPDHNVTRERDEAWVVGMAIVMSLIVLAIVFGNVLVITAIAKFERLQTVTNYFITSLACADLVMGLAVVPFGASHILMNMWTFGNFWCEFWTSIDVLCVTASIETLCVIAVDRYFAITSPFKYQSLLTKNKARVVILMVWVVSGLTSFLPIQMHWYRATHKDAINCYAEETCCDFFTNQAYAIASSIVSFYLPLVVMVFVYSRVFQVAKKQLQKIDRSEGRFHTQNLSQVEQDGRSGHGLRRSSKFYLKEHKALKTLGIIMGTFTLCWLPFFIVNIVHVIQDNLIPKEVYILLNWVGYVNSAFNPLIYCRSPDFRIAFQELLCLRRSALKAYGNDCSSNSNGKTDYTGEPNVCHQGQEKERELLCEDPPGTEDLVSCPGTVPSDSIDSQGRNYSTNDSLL

Row | Compound | EC50 (β2-adrenoceptor) | IC30 (human eosinophils) | melting point | Inhibition of PDE4 activity [-logIC50] (PDE4) | β2-Adrenoceptor agonistic affinity [-logEC50 (mol/l)] (β2-adrenoceptor) | Inhibition of C5a-stimulated chemiluminescence [-logIC30 (mol/l)] (human eosinophils)
1 | COc1ccc(C2=NN(CCCCNCC(O)c3cc(Cl)c(N)c(Cl)c3)C(=O)[C@H]3CCCC[C@@H]23)cc1OC.O=C(O)/C=C/C(=O)O (relative stereo) [Compound 1, (cis)-2-(4-[{2-(4-amino-3,5-dichlorophenyl)-2-hydroxyethyl}-amino]-1-butyl)-4-(3,4-dimethoxyphenyl)-4a,5,6,7,8,8a-hexahydro-2H-phthalazin-1-one fumarate] | 0.0129 µM | 3.02 µM | 85 to 88 °C | 6.97 |  | 
2 | COc1ccc(C2=NN(C3CCN(C(=O)CCCNCC(O)c4cc(Cl)c(N)c(C#N)c4)CC3)C(=O)[C@@H]3CC=CC[C@H]23)cc1OC.O=C(O)/C=C/C(=O)O (stereo partly drawn) [Compound 20, 2-Amino-3-chloro-5-[2-(4-{4-[(4aS,8aR)-4-(3,4-dimethoxy-phenyl)-1-oxo-4a,5,8,8a-tetrahydro-1H-phthalazin-2-yl]-piperidin-1-yl}-4-oxo-butylamino)-1-hydroxy-ethyl]-benzonitrile fumarate] | 0.00229 µM | 0.0794 µM |  | 10.2 |  | 
3 | (cis)-2-(4-[{2-(4-amino-3-chloro-5-cyanophenyl)-2-hydroxyethyl}amino]-1-butyl)-4-(3,4-dimethoxyphenyl)-4a,5,8,8a-tetrahydro-2H-phthalazin-1-one hemifumarate [Compound 11] |  |  |  |  | 8.11 -log(mol/l) | 6.22 mol/l
4 | (cis)-2-(5-[{2-(4-amino-3-chloro-5-cyanophenyl)-2-hydroxyethyl}amino]-1-pentyl)-4-(3,4-dimethoxyphenyl)-4a,5,8,8a-tetrahydro-2H-phthalazin-1-one hemifumarate [Compound 12] |  |  |  |  | 8.61 -log(mol/l) | 5.92 mol/l
5 | (cis)-2-(6-[{2-(4-amino-3,5-dichlorophenyl)-2-hydroxyethyl}-amino]-1-hexyl)-4-(3,4-dimethoxyphenyl)-4a,5,6,7,8,8a-hexahydro-2H-phthalazin-1-one hemifumarate [Compound 2] |  |  |  |  | 6.86 -log(mol/l) | <5 mol/l
6 | (cis)-2-(6-[{2-(4-amino-3,5-dichlorophenyl)-2-hydroxyethyl}-amino]-1-hexyl)-4-(3,4-dimethoxyphenyl)-4a,5,8,8a-tetrahydro-2H-phthalazin-1-one hemifumarate [Compound 6] |  |  |  |  | 7.60 -log(mol/l) | 6.00 mol/l
7 | (cis)-2-(6-[{2-(4-amino-3-chloro-5-cyanophenyl)-2-hydroxyethyl}amino]-1-hexyl)-4-(3,4-dimethoxyphenyl)-4a,5,8,8a-tetrahydro-2H-phthalazin-1-one hemifumarate [Compound 13] |  |  |  |  | 6.91 -log(mol/l) | 6.52 mol/l
8 | (cis)-2-(8-[{2-(4-amino-3,5-dichlorophenyl)-2-hydroxyethyl}-amino]-1-octyl)-4-(3,4-dimethoxyphenyl)-4a,5,6,7,8,8a-hexahydro-2H-phthalazin-1-one hemifumarate [Compound 3] |  |  |  |  | 6.77 -log(mol/l) | 6.52 mol/l
9 | (cis)-4-(3,4-dimethoxyphenyl)-2-(6-[{2-(4-hydroxy-3-hydroxymethylphenyl)-2-hydroxyethyl}amino]-1-hexyl)-4a,5,6,7,8,8a-hexahydro-2H-phthalazin-1-one hemifumarate [Compound 14] |  |  |  |  | 7.24 -log(mol/l) | 5.30 mol/l
